{"source": "patent US4755388A", "about": "“Liposome-encapsulated 5-fluoropyrimidines and methods for their use” (The Regents of the University of California, priority 1986, dated 1988)", "key": {"CV1-P cells": {"system": "CV1-P cells", "assay": "Growth inhibition by 5-fluoroorotate, CV1-P cells (72 hours)", "type": "cell-based", "details": "free drug mean of 3 determinations, liposomes from individual growth inhibition curves, read-out: IC50 (concentration of the drug that inhibits cell growth by 50%)", "procedure": "(§1) All phospholipids (Avanti, Birmingham, Ala.) were used without further purification. Cholesterol (Sigma, St. Louis, Mo.) was recrystallized four times with methanol. All lipids were stored under argon in chloroform solution in sealed ampoules until use. Liposomes were prepared by reverse-phase evaporation (Szoka and Papahadjopoulos (1978) Proc. Natl. Acad. Sci. U.S.A. 75:4194-4198), and extrusion (Szoka et al. (1980) Biochem. et Biophys. Acta. 601:559-571). Small liposomes were made by extensive sonication of lipid suspensions. The unencapsulated drug was removed by gel filtration with Sephadex® G75 (Pharmacia). Lipid concentration was measured by phosporous analysis as described by Bartlett (1959) J. Biol. chem. 234:466-468. The encapsulated drug was measured using a molar extinction coefficient of 7100 in 0.1N HCl. A liposome sample was extracted (Bligh et al. (1959) Can. J. Biochem. Physiol. 37:[…]), the upper phase was acidified with HCl, and its absorbance was meausred. L929 murine fibroblasts and CV1-P cells were obtained and grown as previously described by Heath et al. (1983) Proc. Natl. Acad. Sci. U.S.A. 80:1377-1381 and Fraley et al. (1980) J. Biol. Chem. 255:10431-10435, respectively. The IC50 of the liposome preparations was measured by growth inhibition as previously described by Heath et al. (1983) supra. […]"}, "L929 murine fibroblasts": {"system": "L929 murine fibroblasts", "assay": "Growth inhibition by 5-fluoroorotate, L929 murine fibroblasts (48 hours)", "type": "cell-based", "details": "free drug mean of 4 determinations, liposomes from individual growth inhibition curves, read-out: IC50 (concentration of the drug that inhibits cell growth by 50%)", "procedure": "as §1"}, "Aqueous solubility": {"assay": "Aqueous solubility", "type": "physicochemical", "details": "water, read-out: maximum aqueous solubility"}}, "note": "Read-outs that look alike come from different tables or passages of the source.", "data": [{"molecule": "O=C(O)c1[nH]c(=O)[nH]c(=O)c1F", "note": "[Free Drug, 5-fluoroorotate]", "values": [{"measurement": "IC50", "setting": "CV1-P cells", "value": 7000, "unit": "nM"}, {"measurement": "IC50", "setting": "L929 murine fibroblasts; L929, 48 hours", "value": "1100 ± 300", "unit": "nM"}, {"measurement": "IC50", "setting": "L929 murine fibroblasts; Mus musculus, L929, 48 h", "value": 1000, "unit": "nM"}]}, {"molecule": "O=C([O-])c1[nH]c(=O)[nH]c(=O)c1F.[Na+]", "note": "[Sodium 5-fluoroorotate]", "values": [{"measurement": "solubility", "setting": "Aqueous solubility", "value": 15, "unit": "mM"}]}, {"molecule": "O=C([O-])c1[nH]c(=O)[nH]c(=O)c1F.[Li+]", "note": "[lithium salt, lithium 5-fluoroorotate]", "values": [{"measurement": "solubility", "setting": "Aqueous solubility", "value": "≥ 50", "unit": "mM"}]}]}
